In brackets after ≈: the same amount, converted by molar mass. Several values for one entry are separate records, joined by “and”; a condition that tells them apart may be missing. Equal values may be shown once.
Assays:
[1] = tested on: C. albicans ATCC MYA-1003(R) (strain A); format: cell-based, Candida albicans; settings: strain A = C. albicans ATCC MYA-1003(R); MIC-0; 48 h at 35° C.
[2] = tested on: C. glabrata ATCC 2001 (strain H); test: MIC determination (broth microdilution); format: cell-based, Candida glabrata; settings: strain H = C. glabrata ATCC 2001; MIC-0; 48 h at 35° C.
[3] = tested on: C. parapsilosis ATCC 22019 (strain J); test: MIC determination (broth microdilution); format: cell-based; settings: strain J = C. parapsilosis ATCC 22019; MIC-0; 48 h; listed as printed beside letter K
[4] = tested on: C. auris AR Bank # 0384 (strain K); test: MIC determination (broth microdilution); format: cell-based, Candida auris; settings: strain K = C. auris AR Bank # 0384; MIC-0; 48 h (CAS read at 24 h); Table 1; also in Table 2
[5] = tested on: C. auris AR Bank # 0390 (strain L); test: MIC determination (broth microdilution); format: cell-based, Candida auris; settings: strain L = C. auris AR Bank # 0390; MIC-0; 48 h (CAS read at 24 h); Table 1 row printed without letter, below L; also in Table 2
[6] = tested on: C. neoformans ATCC MYA-85 (strain M); test: MIC determination (broth microdilution); format: cell-based, Cryptococcus neoformans; settings: strain M = C. neoformans ATCC MYA-85; MIC-0; 72 h at 35° C.
[7] = tested on: C. neoformans CN1 (strain N); test: MIC determination (broth microdilution); format: cell-based, Cryptococcus neoformans; settings: MIC-0, 72 h at 35° C.
[8] = tested on: A. terreus ATCC MYA-3633 (strain R); format: cell-based, Aspergillus terreus; settings: strain R = A. terreus ATCC MYA-3633; MIC-0; 72 h at 35° C.
[9] = tested on: F. graminearum 053 (strain T); format: cell-based, Fusarium graminearum; settings: strain T = F. graminearum 053; MIC-0; room temperature, 5 days
[10] = tested on: C. auris AR Bank # 0382 (strain II); test: MIC determination (broth microdilution); format: cell-based, Candida auris; settings: strain II = C. auris AR Bank # 0382; MIC-0; 48 h (CAS read at 24 h)
[11] = tested on: C. auris AR Bank # 0386 (strain V); test: MIC determination (broth microdilution); format: cell-based, Candida auris; settings: strain V = C. auris AR Bank # 0386; MIC-0; 48 h (CAS read at 24 h)
[12] = tested on: C. auris AR Bank # 0387 (strain VI); test: MIC determination (broth microdilution); format: cell-based, Candida auris; settings: strain VI = C. auris AR Bank # 0387; MIC-0; 48 h (CAS read at 24 h)
[13] = tested on: C. auris AR Bank # 0388 (strain VII); test: MIC determination (broth microdilution); format: cell-based, Candida auris; settings: strain VII = C. auris AR Bank # 0388; MIC-0; 48 h (CAS read at 24 h)
[14] = tested on: C. auris AR Bank # 0389 (strain VIII); test: MIC determination (broth microdilution); format: cell-based, Candida auris; settings: strain VIII = C. auris AR Bank # 0389; MIC-0; 48 h (CAS read at 24 h)
[15] = tested on: C. glabrata ATCC 2001 (strain H) pre-formed biofilm; test: Disruption of pre-formed biofilm (XTT); format: cell-based, Candida glabrata; settings: for Pre-formed biofilm SMIC90: biofilm treated at 24 h, XTT
[16] = tested on: C. auris AR Bank # 0390 (strain L) pre-formed biofilm; format: cell-based, Candida auris; settings: biofilm treated at 24 h, XTT
[17] = tested on: fungal strains (Candida spp., Cryptococcus spp., Aspergillus spp., Fusarium spp.); test: MIC determination, summary statements over the strain panel; format: cell-based
[18] = tested on: A. nidulans ATCC 38163 (strain Q); test: MIC determination (broth microdilution); format: cell-based, Aspergillus nidulans; settings: strain Q = A. nidulans ATCC 38163; MIC-0; 72 h at 35° C.
[19] = tested on: four mammalian cell lines (A549, BEAS-2B, HEK-293, J774A.1); test: Mammalian cytotoxicity assays, summary over cell lines; format: cell-based
Source text: For cytotoxicity assays, the human embryonic kidney cell line (HEK-293) was purchased from the ATCC. The human bronchial epithelial cell line (BEAS-2B), the human lung carcinoma cell line (A549), and the mouse macrophage cell line (J774A.1) were generous gifts from Prof. David K. Orren (University of Kentucky, Lexington, Ky.), Prof. Markos Leggas (University of Kentucky, Lexington, Ky.), and Prof. David J. Feola (University of Kentucky, Lexington, Ky.), respectively. A549, HEK-293, and BEAS-2B cells were cultured in Dulbecco's Modified Eagle's Medium (DMEM, catalog #VWRL0100, VWR, Chicago, Ill.) supplemented with 10% fetal bovine serum (FBS; from ATCC) and 1% penicillin/streptomycin (from ATCC) at 37° C. with 5% CO2. The J774A.1 cells were cultured in DMEM (catalog #30-2002, ATCC, Manassas, Va.), which was also supplemented with FBS and antibiotics and grown at 37° C. with 5% CO2.
To examine whether the compounds are safe for human cells, cytotoxicity assays were done against four mammalian cell lines: HEK-293, A549, BEAS-2B, and J774A.1 cells. […] HEK-293 and J774A.1 cells were plated at 1×10^4 cells/mL while A549 and BEAS-2B were plated at 3×10^3 cells/mL. Compounds were tested in concentrations ranging from 0.06 to 15.6 μg/mL with final concentration of DMSO at 0.5% (FIG. 4A-D).

Row | Compound | MIC [1] [µg/mL] | MIC (in parentheses) [1] [µM] | MIC [2] [µg/mL] | MIC (in parentheses) [2] [µM] | MIC [3] [µg/mL] | MIC (in parentheses) [3] [µM] | MIC [4] [µg/mL] | MIC (in parentheses) [4] [µM] | MIC [5] [µg/mL] | MIC (in parentheses) [5] [µM] | MIC [6] [µg/mL] | MIC (in parentheses) [6] [µM] | MIC [7] [µg/mL] | MIC (in parentheses) [7] [µM] | MIC [8] [µg/mL] | MIC (in parentheses) [8] [µM] | MIC [9] [µg/mL] | MIC (in parentheses) [9] [µM] | Pre-formed biofilm SMIC90 [15] [µg/mL] | Pre-formed biofilm SMIC90 [16] [µg/mL] | further results
1 | C[C@@H]1[C@H](O)[C@@H](C)/C=C/C=C/C=C/C=C/C=C/C=C/C=C/[C@H](O[C@@H]2O[C@H](C)[C@@H](O)[C@H](N)[C@@H]2O)C[C@@H]2O[C@](O)(C[C@@H](O)C[C@@H](O)[C@H](O)CC[C@@H](O)C[C@@H](O)CC(=O)O[C@H]1C)C[C@H](O)[C@H]2C(=O)O [AmB, amphotericin B, reference compound] | 0.98 (≈ 1.06 µM) | 1.1 (≈ 1.02 µg/mL) | 3.9 (≈ 4.22 µM) | 4.2 (≈ 3.88 µg/mL) | 3.9 (≈ 4.22 µM) | 4.2 (≈ 3.88 µg/mL) | 1.95 (≈ 2.11 µM) | 2.1 (≈ 1.94 µg/mL) | 1.95 (≈ 2.11 µM) | 2.1 (≈ 1.94 µg/mL) | > 31.3 | > 33.9 | 0.98 (≈ 1.06 µM) | 1.1 (≈ 1.02 µg/mL) | 7.8 (≈ 8.44 µM) | 8.4 (≈ 7.76 µg/mL) | 7.8 (≈ 8.44 µM) | 8.4 (≈ 7.76 µg/mL) | 7.8 | 7.8 | MIC [10]: 0.98 µg/mL (≈ 1.06 µM); MIC (in parentheses) [10]: 1.1 µM (≈ 1.02 µg/mL); MIC [11]: 1.95 µg/mL (≈ 2.11 µM); MIC (in parentheses) [11]: 2.1 µM (≈ 1.94 µg/mL); MIC [12]: 1.95 µg/mL (≈ 2.11 µM); MIC (in parentheses) [12]: 2.1 µM (≈ 1.94 µg/mL); MIC [13]: 1.95 µg/mL (≈ 2.11 µM); MIC (in parentheses) [13]: 2.1 µM (≈ 1.94 µg/mL); MIC [14]: 1.95 µg/mL (≈ 2.11 µM); MIC (in parentheses) [14]: 2.1 µM (≈ 1.94 µg/mL); SMIC90 of pre-formed biofilm relative to MIC with planktonic cells [15]: 2 fold; MIC values (range) ([17]; all filamentous fungi, Aspergillus spp. and Fusarium spp.): 7.8 to 31.3 µg/mL
2 | CC(=O)OC[C@H]1O[C@@H]([S-])[C@H](OC(C)=O)[C@@H](OC(C)=O)[C@@H]1OC(C)=O.CCP(CC)CC.[Au+] [Auranofin, auranofin, reference compound] | > 31.3 | > 46.1 | > 31.3 | > 46.1 | > 31.3 | > 46.1 | > 31.3 | > 46.1 | > 31.3 | > 46.1 | ≤ 0.06 | ≤ 0.1 | 3.9 | 5.7 | 7.8 | 11.5 | > 31.3 | > 46.1 | >31.3 | >31.3 | MIC [18]: 3.9 µg/mL; MIC (in parentheses) [18]: 5.7 µM; Pre-formed biofilm SMIC90 ([15]; listed as auranofin): inactive; MIC ([17]; Candida spp.): > 31.3 µg/mL; antifungal activity ([17]; Candida spp.): no antifungal activity; antifungal activity class ([17]; Candida spp.): poor (MIC ≥15.6 μg/mL (poor antifungal activity)); MIC ([17]; two Aspergillus spp.): 3.9 µg/mL and 7.8 µg/mL; antifungal activity class ([17]; two Aspergillus spp.): good (MIC = 3.9-7.8 μg/mL (good antifungal activity)); IC50 ([19]; A549, BEAS-2B, and HEK-293 cell lines, read-out: IC50 values (range over cell lines)): 500 to 3000 nM; cell survival ([19]; at 15.6 μg/mL, excluding auranofin with J774A.1): no cell survival
